Results: patent US6498139B1, “Remedies for diseases caused by insulin resistance” (Daiichi Pharmaceutical Co., Ltd., priority 1997, dated 2002)

System: 14-3-3 protein binding to IRS-1
Assay: Amount of 14-3-3 protein binding to IRS-1 in HepG2 hepatoma cells overexpressing IRS-1
Type: cell-based
Details: IRS-1 overexpressed by adenovirus expression system

| Compound | amount of 14-3-3 protein binding to IRS-1 |
| --- | --- |
| C=C1[C@@H](O)[C@@H]2O[C@]3(CC[C@H](/C=C/[C@@H](C)[C@@H]4CC(C)=C[C@@]5(O[C@H](C[C@@](C)(O)C(=O)O)CC[C@H]5O)O4)O3)CC[C@H]2O[C@@H]1[C@@H](O)C[C@H](C)[C@H]1O[C@@]2(CCCCO2)CC[C@H]1C [okadaic acid] | significantly increased |
| insulin | not changed |
